In ChEMBL document CHEMBL1201862, “PubChem BioAssay data set” (2004):
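A five-concentration, 48-hour dose response in 96-well plates underlies each endpoint, interpolated linearly between surrounding concentrations. GI50 is the concentration that inhibits growth by half.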 Active and inactive are the calls of the source. Rule as the data show it: active = GI50 up to about 1.1 µM and inactive = higher.

What was measured:
Assay in all cases: NCI tumour cell line growth inhibition, 48 h
[1] = test system: K562
[2] = test system: OVCAR-3
[3] = test system: SF-268
[4] = test system: IGROV-1
[5] = test system: Malme-3M
[6] = test system: T47D
[7] = test system: DU-145
[8] = test system: MDA-MB-231
[9] = test system: BT-549
[10] = test system: SNB-75
[11] = test system: NCI/ADR-RES
[12] = test system: NCI-H226
[13] = test system: ACHN
[14] = test system: SR
[15] = test system: A498
[16] = test system: HOP-92
[17] = test system: SK-MEL-2
[18] = test system: UACC-62
[19] = test system: SN12C
[20] = test system: LOX IMVI
[21] = test system: CCRF-CEM
[22] = test system: SF-295
[23] = test system: SNB-19
[24] = test system: MDA-MB-435
[25] = test system: NCI-H522
[26] = test system: HCT-116
[27] = test system: RXF 393
[28] = test system: OVCAR-5
[29] = test system: MDA-N
[30] = test system: HL-60
[31] = test system: UO-31
[32] = test system: SK-OV-3
[33] = test system: OVCAR-8
[34] = test system: 786-0
[35] = test system: UACC-257
[36] = test system: MOLT-4
[37] = test system: RPMI-8226
[38] = test system: SF-539
[39] = test system: A549
[40] = test system: NCI-H23
[41] = test system: HCT-15
[42] = test system: EKVX
[43] = test system: CAKI-1
[44] = test system: TK-10
[45] = test system: KM12
[46] = test system: MCF7
[47] = test system: SK-MEL-5
[48] = test system: HOP-62
[49] = test system: Hs-578T
[50] = test system: COLO 205
[51] = test system: M14
[52] = test system: SW-620
[53] = test system: HT-29
[54] = test system: NCI-H460
[55] = test system: SK-MEL-28
[56] = test system: PC-3
[57] = test system: HCC 2998
[58] = test system: OVCAR-4
[59] = test system: U-251

CCc1ccc(Nc2cc(=O)[nH]c(SCc3ccccc3)n2)cc1
GI50 [1]: > 100 µM (inactive) | GI50 [2]: 39.4 µM (inactive) | GI50 [3]: 73.1 µM (inactive) | GI50 [4]: > 100 µM (inactive) | GI50 [5]: > 100 µM (inactive) | GI50 [6]: > 100 µM (inactive) | GI50 [7]: > 100 µM (inactive) | GI50 [8]: 4.17 µM (inactive) | GI50 [9]: > 100 µM (inactive) | GI50 [10]: 30.3 µM (inactive) | GI50 [11]: 74.1 µM (inactive) | GI50 [12]: > 100 µM (inactive) | GI50 [13]: 50.7 µM (inactive) | GI50 [14]: > 100 µM (inactive) | GI50 [15]: > 100 µM (inactive) | GI50 [16]: 31.2 µM (inactive) | GI50 [17]: > 100 µM (inactive) | GI50 [18]: 48.8 µM (inactive) | GI50 [19]: > 100 µM (inactive) | GI50 [20]: > 100 µM (inactive) | GI50 [21]: > 100 µM (inactive) | GI50 [22]: 46.2 µM (inactive) | GI50 [23]: 38.2 µM (inactive) | GI50 [24]: > 100 µM (inactive) | GI50 [25]: > 100 µM (inactive) | GI50 [26]: 80.7 µM (inactive) | GI50 [27]: > 100 µM (inactive) | GI50 [28]: > 100 µM (inactive) | GI50 [29]: > 100 µM (inactive) | GI50 [30]: > 100 µM (inactive) | GI50 [31]: > 100 µM (inactive) | GI50 [32]: > 100 µM (inactive) | GI50 [33]: 44.9 µM (inactive) | GI50 [34]: 43.6 µM (inactive) | GI50 [35]: > 100 µM (inactive) | GI50 [36]: > 100 µM (inactive) | GI50 [37]: > 100 µM (inactive) | GI50 [38]: 52 µM (inactive) | GI50 [39]: > 100 µM (inactive) | GI50 [40]: 61.5 µM (inactive) | GI50 [41]: > 100 µM | GI50 [42]: 57.7 µM (inactive) | GI50 [43]: > 100 µM (inactive) | GI50 [44]: > 100 µM (inactive) | GI50 [45]: > 100 µM (inactive) | GI50 [46]: > 100 µM (inactive) | GI50 [47]: 78 µM (inactive) | GI50 [48]: 32.5 µM (inactive) | GI50 [49]: > 100 µM (inactive) | GI50 [50]: > 100 µM (inactive) | GI50 [51]: > 100 µM (inactive) | GI50 [52]: > 100 µM (inactive) | GI50 [53]: > 100 µM (inactive)

CCCSc1ccc2[nH]c(N3C(=O)/C(=C/c4ccc(O)c(OC)c4)N=C3c3ccccc3)cc2c1
GI50 [1]: 3.68 µM (inactive) | GI50 [2]: 6.7 µM (inactive) | GI50 [3]: 9.16 µM (inactive) | GI50 [4]: 4.2 µM (inactive) | GI50 [5]: 2.98 µM (inactive) | GI50 [6]: 22.3 µM (inactive) | GI50 [7]: 25.8 µM (inactive) | GI50 [9]: 9.57 µM (inactive) | GI50 [10]: 26.2 µM (inactive) | GI50 [11]: 3.1 µM (inactive) | GI50 [54]: 0.0422 µM (active) | GI50 [13]: 25.2 µM (inactive) | GI50 [14]: 1.34 µM (inactive) | GI50 [15]: 6.35 µM (inactive) | GI50 [16]: 22 µM (inactive) | GI50 [17]: 0.0775 µM (active) | GI50 [18]: 3.07 µM (inactive) | GI50 [19]: 4.18 µM (inactive) | GI50 [20]: 7.14 µM (inactive) | GI50 [21]: 7.82 µM (inactive) | GI50 [55]: 17.2 µM (inactive) | GI50 [23]: 3.57 µM (inactive) | GI50 [24]: 2.69 µM (inactive) | GI50 [25]: 4.07 µM (inactive) | GI50 [26]: 7.59 µM (inactive) | GI50 [27]: 18.8 µM (inactive) | GI50 [28]: 4.07 µM (inactive) | GI50 [29]: 2.32 µM (inactive) | GI50 [56]: 13.2 µM (inactive) | GI50 [30]: 2.82 µM (inactive) | GI50 [31]: 12.8 µM (inactive) | GI50 [32]: 0.1 µM (active) | GI50 [33]: 21.3 µM (inactive) | GI50 [34]: 16.3 µM (inactive) | GI50 [35]: 4.56 µM (inactive) | GI50 [36]: 4.23 µM (inactive) | GI50 [37]: 3.53 µM (inactive) | GI50 [38]: 4.88 µM (inactive) | GI50 [57]: 2.8 µM (inactive) | GI50 [40]: 16.7 µM (inactive) | GI50 [41]: 4.43 µM | GI50 [42]: 14.5 µM (inactive) | GI50 [43]: 14.7 µM (inactive) | GI50 [45]: 0.0791 µM (active) | GI50 [46]: 2.94 µM (inactive) | GI50 [47]: 4.51 µM (inactive) | GI50 [48]: 0.0424 µM (active) | GI50 [49]: 0.0697 µM (active) | GI50 [50]: 4.27 µM (inactive) | GI50 [51]: 3.58 µM (inactive) | GI50 [52]: 5.61 µM (inactive) | GI50 [53]: 3.02 µM (inactive)

CC(C)(C)OC(=O)N1C(c2cccnc2)=CC[C@H]2C3CC=C(c4cccnc4)[C@@]3(C)CC[C@@H]21 (stereo partly specified)
GI50 [1]: 0.52 µM (active) | GI50 [2]: 3.44 µM (inactive) | GI50 [3]: 2.9 µM (inactive) | GI50 [4]: 4.16 µM (inactive) | GI50 [5]: 3.44 µM (inactive) | GI50 [6]: 4.16 µM (inactive) | GI50 [7]: 4.76 µM (inactive) | GI50 [9]: 4.53 µM (inactive) | GI50 [10]: 5.6 µM (inactive) | GI50 [11]: 8.45 µM (inactive) | GI50 [54]: 3.51 µM (inactive) | GI50 [12]: 3.56 µM (inactive) | GI50 [13]: 3.46 µM (inactive) | GI50 [14]: 3.28 µM (inactive) | GI50 [15]: 5.81 µM (inactive) | GI50 [16]: 2.52 µM (inactive) | GI50 [17]: 2.95 µM (inactive) | GI50 [18]: 2.61 µM (inactive) | GI50 [19]: 3.67 µM (inactive) | GI50 [20]: 2.71 µM (inactive) | GI50 [21]: 3.99 µM (inactive) | GI50 [22]: 3.13 µM (inactive) | GI50 [23]: 4.83 µM (inactive) | GI50 [58]: 5.09 µM (inactive) | GI50 [24]: 2.13 µM (inactive) | GI50 [25]: 2.92 µM (inactive) | GI50 [26]: 4.04 µM (inactive) | GI50 [27]: 3.32 µM (inactive) | GI50 [28]: 11.9 µM (inactive) | GI50 [29]: 3.05 µM (inactive) | GI50 [56]: 4.6 µM (inactive) | GI50 [30]: 1.97 µM (inactive) | GI50 [31]: 4.95 µM (inactive) | GI50 [32]: 4.54 µM (inactive) | GI50 [33]: 4.02 µM (inactive) | GI50 [34]: 4.86 µM (inactive) | GI50 [35]: 3.23 µM (inactive) | GI50 [36]: 2.54 µM (inactive) | GI50 [37]: 1.82 µM (inactive) | GI50 [38]: 3.82 µM (inactive) | GI50 [39]: 3.37 µM (inactive) | GI50 [40]: 3.4 µM (inactive) | GI50 [41]: 3.52 µM | GI50 [42]: 2.11 µM (inactive) | GI50 [43]: 6.55 µM (inactive) | GI50 [44]: 4.22 µM (inactive) | GI50 [45]: 4.06 µM (inactive) | GI50 [46]: 2.81 µM (inactive) | GI50 [47]: 2.07 µM (inactive) | GI50 [48]: 2.79 µM (inactive) | GI50 [59]: 3.36 µM (inactive) | GI50 [49]: 5.64 µM (inactive) | GI50 [50]: 1.74 µM (inactive) | GI50 [51]: 4.75 µM (inactive) | GI50 [52]: 3.83 µM (inactive) | GI50 [53]: 3.53 µM (inactive)
